{
  "source": "BindingDB's records for PubMed 11082453",
  "about": "(Abbott Laboratories, 2000)",
  "key": {"[1]": {"target": "5-hydroxytryptamine receptor 7 (Rattus norvegicus, UniProt P32305)"}, "[2]": {"target": "Vasopressin V2 receptor (Rattus norvegicus, UniProt Q00788)"}, "[3]": {"target": "Amine oxidase [flavin-containing] B (Rattus norvegicus, UniProt P19643)"}, "[4]": {"target": "5-hydroxytryptamine receptor 3A (Rattus norvegicus, UniProt P35563)"}, "[5]": {"target": "5'-nucleotidase (Rattus norvegicus, UniProt P21588)"}, "[6]": {"target": "Pro-neuropeptide Y (Rattus norvegicus, UniProt P07808)"}, "[7]": {"target": "Muscarinic acetylcholine receptor M5 (Rattus norvegicus, UniProt P08911)", "sequence (P08911 whole entry)": "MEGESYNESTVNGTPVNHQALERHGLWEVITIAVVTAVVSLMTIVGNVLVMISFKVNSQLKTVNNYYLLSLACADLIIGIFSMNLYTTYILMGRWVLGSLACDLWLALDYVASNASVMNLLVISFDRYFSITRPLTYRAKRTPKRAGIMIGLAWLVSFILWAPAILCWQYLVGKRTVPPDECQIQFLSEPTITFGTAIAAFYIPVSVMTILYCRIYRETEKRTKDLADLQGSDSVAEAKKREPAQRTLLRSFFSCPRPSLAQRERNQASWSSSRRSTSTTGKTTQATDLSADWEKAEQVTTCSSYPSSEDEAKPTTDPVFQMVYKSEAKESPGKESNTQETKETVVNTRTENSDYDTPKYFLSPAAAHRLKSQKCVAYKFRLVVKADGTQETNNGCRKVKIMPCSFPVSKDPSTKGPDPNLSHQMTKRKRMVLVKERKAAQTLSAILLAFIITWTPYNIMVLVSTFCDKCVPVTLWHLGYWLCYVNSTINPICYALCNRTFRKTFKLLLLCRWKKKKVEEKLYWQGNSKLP"}, "[8]": {"target": "5-hydroxytryptamine receptor 5A (Rattus norvegicus, UniProt P35364)"}, "[9]": {"target": "Substance-P receptor (Rattus norvegicus, UniProt P14600)"}, "[10]": {"target": "Cannabinoid receptor 1 (Rattus norvegicus, UniProt P20272)"}, "[11]": {"target": "Vasopressin V1a receptor (Rattus norvegicus, UniProt P30560)"}, "[12]": {"target": "Calcium release-activated calcium channel protein 1 (Homo sapiens, UniProt Q96D31)"}, "[13]": {"target": "Bombesin receptor subtype-3 (Rattus norvegicus, UniProt Q8K418)", "sequence (Q8K418 whole entry)": "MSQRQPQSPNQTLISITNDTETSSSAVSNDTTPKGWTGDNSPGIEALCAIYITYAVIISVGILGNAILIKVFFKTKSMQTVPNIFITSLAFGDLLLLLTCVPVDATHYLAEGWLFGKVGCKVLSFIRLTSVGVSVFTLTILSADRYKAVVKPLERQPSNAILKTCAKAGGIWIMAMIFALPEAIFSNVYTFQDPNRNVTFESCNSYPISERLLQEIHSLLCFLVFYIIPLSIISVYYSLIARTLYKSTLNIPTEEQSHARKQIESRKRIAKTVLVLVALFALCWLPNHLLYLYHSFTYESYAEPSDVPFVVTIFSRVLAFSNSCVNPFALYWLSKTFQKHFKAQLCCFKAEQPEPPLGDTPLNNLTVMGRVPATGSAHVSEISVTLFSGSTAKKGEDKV"}, "[14]": {"target": "Cannabinoid receptor 2 (Rattus norvegicus, UniProt Q9QZN9)"}, "[15]": {"target": "D(2) dopamine receptor (Rattus norvegicus, UniProt P61169)", "sequence (P61169 whole entry)": "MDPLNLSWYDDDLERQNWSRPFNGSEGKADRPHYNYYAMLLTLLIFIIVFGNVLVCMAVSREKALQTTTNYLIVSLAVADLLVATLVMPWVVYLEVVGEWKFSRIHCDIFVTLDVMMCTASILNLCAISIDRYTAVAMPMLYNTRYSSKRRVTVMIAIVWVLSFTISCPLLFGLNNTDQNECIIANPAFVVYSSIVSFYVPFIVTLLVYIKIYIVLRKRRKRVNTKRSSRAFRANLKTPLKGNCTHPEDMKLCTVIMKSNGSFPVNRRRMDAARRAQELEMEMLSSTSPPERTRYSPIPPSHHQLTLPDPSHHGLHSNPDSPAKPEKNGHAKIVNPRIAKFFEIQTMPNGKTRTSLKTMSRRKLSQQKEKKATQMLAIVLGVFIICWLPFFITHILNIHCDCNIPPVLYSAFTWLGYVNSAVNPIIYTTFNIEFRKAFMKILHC"}, "[16]": {"target": "Gamma-aminobutyric acid (GABA) B receptor 1 (Rattus norvegicus, UniProt Q6MFX8)"}, "[17]": {"target": "D(4) dopamine receptor (Rattus norvegicus, UniProt P30729)"}, "[18]": {"target": "Endothelin-1 receptor (Rattus norvegicus, UniProt P26684)"}, "[19]": {"target": "Muscarinic acetylcholine receptor M4 (Rattus norvegicus, UniProt P08485)", "sequence (P08485 as listed by the source)": "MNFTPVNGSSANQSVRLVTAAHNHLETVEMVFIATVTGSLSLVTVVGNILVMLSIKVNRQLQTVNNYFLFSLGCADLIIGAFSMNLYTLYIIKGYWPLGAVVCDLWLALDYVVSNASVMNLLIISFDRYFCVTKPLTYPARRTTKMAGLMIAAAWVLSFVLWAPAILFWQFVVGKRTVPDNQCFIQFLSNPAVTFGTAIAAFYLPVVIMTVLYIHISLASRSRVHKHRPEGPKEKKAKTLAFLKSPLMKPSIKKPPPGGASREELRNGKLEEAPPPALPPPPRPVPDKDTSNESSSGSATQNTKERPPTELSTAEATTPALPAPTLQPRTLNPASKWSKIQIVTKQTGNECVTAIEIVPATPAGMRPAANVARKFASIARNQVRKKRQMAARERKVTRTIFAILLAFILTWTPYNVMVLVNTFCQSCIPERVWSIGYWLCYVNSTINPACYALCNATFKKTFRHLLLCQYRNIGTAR"}, "[20]": {"target": "Glutamate receptor ionotropic, kainate 1 (Rattus norvegicus, UniProt P22756)"}, "[21]": {"target": "Substance-K receptor (Rattus norvegicus, UniProt P16610)", "sequence (P16610 whole entry)": "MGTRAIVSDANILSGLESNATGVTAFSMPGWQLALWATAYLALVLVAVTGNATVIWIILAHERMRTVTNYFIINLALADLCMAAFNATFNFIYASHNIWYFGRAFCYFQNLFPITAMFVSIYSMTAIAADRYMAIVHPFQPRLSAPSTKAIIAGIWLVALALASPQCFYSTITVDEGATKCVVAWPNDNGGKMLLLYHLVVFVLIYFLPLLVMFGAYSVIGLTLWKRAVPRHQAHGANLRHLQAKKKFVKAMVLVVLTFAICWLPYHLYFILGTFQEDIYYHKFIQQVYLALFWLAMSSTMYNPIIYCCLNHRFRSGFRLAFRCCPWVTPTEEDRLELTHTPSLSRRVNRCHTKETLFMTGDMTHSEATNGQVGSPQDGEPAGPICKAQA"}, "[22]": {"target": "Prostacyclin receptor (Rattus norvegicus, UniProt P43253)"}, "[23]": {"target": "Interleukin-1 alpha (Rattus norvegicus, UniProt P16598)", "sequence (P16598 115-270 limits assumed)": "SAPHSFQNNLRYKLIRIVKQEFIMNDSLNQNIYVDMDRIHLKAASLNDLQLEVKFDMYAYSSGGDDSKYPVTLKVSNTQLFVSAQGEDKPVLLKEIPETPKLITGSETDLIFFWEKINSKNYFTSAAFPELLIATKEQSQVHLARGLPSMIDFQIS"}, "[24]": {"target": "Voltage-dependent L-type calcium channel subunit alpha-1C (Rattus norvegicus, UniProt P22002)"}, "[25]": {"target": "Neuropeptide Y receptor type 2 (Rattus norvegicus, UniProt Q9ERC0)"}, "[26]": {"target": "Prostaglandin G/H synthase 2 (Rattus norvegicus, UniProt P35355)", "sequence (P35355 whole entry)": "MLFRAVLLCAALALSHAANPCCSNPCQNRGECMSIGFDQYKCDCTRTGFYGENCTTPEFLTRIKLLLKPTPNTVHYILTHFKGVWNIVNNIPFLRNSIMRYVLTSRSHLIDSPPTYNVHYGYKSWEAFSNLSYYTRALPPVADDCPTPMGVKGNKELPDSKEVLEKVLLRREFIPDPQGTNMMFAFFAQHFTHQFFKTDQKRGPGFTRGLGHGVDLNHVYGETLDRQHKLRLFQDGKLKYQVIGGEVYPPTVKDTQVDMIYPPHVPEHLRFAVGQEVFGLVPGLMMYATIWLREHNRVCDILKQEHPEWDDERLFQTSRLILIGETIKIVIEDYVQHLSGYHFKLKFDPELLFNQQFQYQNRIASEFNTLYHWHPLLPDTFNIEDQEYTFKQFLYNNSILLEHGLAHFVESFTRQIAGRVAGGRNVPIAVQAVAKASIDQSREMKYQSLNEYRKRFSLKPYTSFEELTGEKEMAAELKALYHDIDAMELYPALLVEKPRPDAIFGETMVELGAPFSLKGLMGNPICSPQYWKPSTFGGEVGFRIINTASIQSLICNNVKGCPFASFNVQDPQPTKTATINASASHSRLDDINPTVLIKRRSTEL"}, "[27]": {"target": "Alpha-2C adrenergic receptor (Rattus norvegicus, UniProt P22086)"}, "[28]": {"target": "Thromboxane A2 receptor (Rattus norvegicus, UniProt P34978)"}, "[29]": {"target": "Histamine H2 receptor (Rattus norvegicus, UniProt P25102)", "sequence (P25102 whole entry)": "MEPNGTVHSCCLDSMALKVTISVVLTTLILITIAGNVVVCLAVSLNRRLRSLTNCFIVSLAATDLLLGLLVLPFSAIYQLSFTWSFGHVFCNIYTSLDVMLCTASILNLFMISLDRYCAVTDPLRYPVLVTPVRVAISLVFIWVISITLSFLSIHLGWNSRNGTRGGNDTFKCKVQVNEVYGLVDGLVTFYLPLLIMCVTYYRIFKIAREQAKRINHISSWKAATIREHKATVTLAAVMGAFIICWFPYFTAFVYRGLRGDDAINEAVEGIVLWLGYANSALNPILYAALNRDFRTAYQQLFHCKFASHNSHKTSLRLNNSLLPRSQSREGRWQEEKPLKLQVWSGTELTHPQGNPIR"}, "[30]": {"target": "5-hydroxytryptamine receptor 6 (Rattus norvegicus, UniProt P31388)", "sequence (P31388 whole entry)": "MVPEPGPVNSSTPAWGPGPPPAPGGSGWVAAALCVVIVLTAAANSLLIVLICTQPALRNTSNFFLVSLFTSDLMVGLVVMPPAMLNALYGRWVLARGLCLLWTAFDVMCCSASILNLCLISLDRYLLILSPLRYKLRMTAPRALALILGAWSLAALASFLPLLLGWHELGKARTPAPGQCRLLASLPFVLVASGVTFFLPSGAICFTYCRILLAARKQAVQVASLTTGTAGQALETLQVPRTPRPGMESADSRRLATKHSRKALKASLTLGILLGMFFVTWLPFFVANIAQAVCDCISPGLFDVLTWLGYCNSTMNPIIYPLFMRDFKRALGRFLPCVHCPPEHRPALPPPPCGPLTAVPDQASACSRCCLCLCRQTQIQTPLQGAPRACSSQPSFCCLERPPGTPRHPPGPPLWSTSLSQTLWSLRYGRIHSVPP"}, "[31]": {"target": "Melatonin receptor type 1A (Rattus norvegicus, UniProt P49218)", "sequence (P49218 whole entry)": "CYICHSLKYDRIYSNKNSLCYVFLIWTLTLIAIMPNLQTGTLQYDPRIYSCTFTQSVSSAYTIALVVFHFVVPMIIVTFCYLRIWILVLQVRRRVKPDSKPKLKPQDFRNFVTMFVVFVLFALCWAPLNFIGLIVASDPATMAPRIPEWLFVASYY"}, "[32]": {"target": "Chloride channel protein 1 (Rattus norvegicus, UniProt P35524)"}, "[33]": {"target": "Galanin peptides (Rattus norvegicus, UniProt P10683)", "sequence (P10683 33-61 limits assumed)": "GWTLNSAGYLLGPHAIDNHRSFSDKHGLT"}, "[34]": {"target": "Kappa-type opioid receptor (Rattus norvegicus, UniProt P34975)", "sequence (P34975 whole entry)": "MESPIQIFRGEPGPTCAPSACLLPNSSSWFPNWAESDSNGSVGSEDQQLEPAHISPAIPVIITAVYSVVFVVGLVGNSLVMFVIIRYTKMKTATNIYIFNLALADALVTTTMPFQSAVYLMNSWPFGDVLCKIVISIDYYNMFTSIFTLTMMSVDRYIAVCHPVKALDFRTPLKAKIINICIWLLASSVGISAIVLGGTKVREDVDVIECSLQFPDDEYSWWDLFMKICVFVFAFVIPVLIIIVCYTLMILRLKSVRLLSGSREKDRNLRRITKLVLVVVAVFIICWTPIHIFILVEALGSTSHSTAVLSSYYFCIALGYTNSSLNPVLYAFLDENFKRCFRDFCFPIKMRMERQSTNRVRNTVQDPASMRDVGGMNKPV"}, "[35]": {"target": "Prostaglandin G/H synthase 1 (Rattus norvegicus, UniProt Q63921)"}, "[36]": {"target": "Alpha-1A adrenergic receptor (Rattus norvegicus, UniProt P43140)"}, "[37]": {"target": "Beta-1 adrenergic receptor (Rattus norvegicus, UniProt P18090)", "sequence (P18090 whole entry)": "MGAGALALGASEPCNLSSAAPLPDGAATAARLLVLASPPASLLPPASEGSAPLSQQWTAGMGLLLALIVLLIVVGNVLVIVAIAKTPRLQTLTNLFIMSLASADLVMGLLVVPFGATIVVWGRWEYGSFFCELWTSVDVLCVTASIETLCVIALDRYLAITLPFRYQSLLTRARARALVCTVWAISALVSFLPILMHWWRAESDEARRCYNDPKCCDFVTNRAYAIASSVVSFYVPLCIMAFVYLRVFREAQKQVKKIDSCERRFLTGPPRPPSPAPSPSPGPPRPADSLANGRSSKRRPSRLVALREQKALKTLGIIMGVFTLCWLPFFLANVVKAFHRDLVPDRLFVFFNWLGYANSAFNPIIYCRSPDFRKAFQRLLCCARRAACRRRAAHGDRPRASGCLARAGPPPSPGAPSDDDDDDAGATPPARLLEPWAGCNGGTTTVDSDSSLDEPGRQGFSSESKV"}, "[38]": {"target": "D(3) dopamine receptor (Rattus norvegicus, UniProt P19020)"}, "[39]": {"target": "Gastrin/cholecystokinin type B receptor (Rattus norvegicus, UniProt P30553)"}, "[40]": {"target": "Norepinephrine transporter (Rattus norvegicus, UniProt Q9JIA2)"}},
  "data": [
    {"smiles": "Nc1ncnc2nc(-c3ccc(N4CCOCC4)nc3)cc(-c3cccc(Br)c3)c12", "values": [
      {"measurement": "Ki", "setting": "[1]", "result": "> 10", "unit": "µM"},
      {"measurement": "Ki", "setting": "[2]", "result": "> 10", "unit": "µM"},
      {"measurement": "Ki", "setting": "[3]", "result": "> 10", "unit": "µM"},
      {"measurement": "Ki", "setting": "[4]", "result": "> 10", "unit": "µM"},
      {"measurement": "Ki", "setting": "[5]", "result": "> 10", "unit": "µM"},
      {"measurement": "Ki", "setting": "[6]", "result": "> 10", "unit": "µM"},
      {"measurement": "Ki", "setting": "[7]", "result": "> 10", "unit": "µM"},
      {"measurement": "Ki", "setting": "[8]", "result": "> 10", "unit": "µM"},
      {"measurement": "Ki", "setting": "[9]", "result": "> 10", "unit": "µM"},
      {"measurement": "Ki", "setting": "[10]", "result": "> 10", "unit": "µM"},
      {"measurement": "Ki", "setting": "[11]", "result": "> 10", "unit": "µM"},
      {"measurement": "Ki", "setting": "[12]", "result": "> 10", "unit": "µM"},
      {"measurement": "Ki", "setting": "[13]", "result": "> 10", "unit": "µM"},
      {"measurement": "Ki", "setting": "[14]", "result": "> 10", "unit": "µM"},
      {"measurement": "Ki", "setting": "[15]", "result": "> 10", "unit": "µM"},
      {"measurement": "Ki", "setting": "[16]", "result": "> 10", "unit": "µM"},
      {"measurement": "Ki", "setting": "[17]", "result": "> 10", "unit": "µM"},
      {"measurement": "Ki", "setting": "[18]", "result": "> 10", "unit": "µM"},
      {"measurement": "Ki", "setting": "[19]", "result": "> 10", "unit": "µM"},
      {"measurement": "Ki", "setting": "[20]", "result": "> 10", "unit": "µM"},
      {"measurement": "Ki", "setting": "[21]", "result": 8.56, "unit": "µM"},
      {"measurement": "Ki", "setting": "[22]", "result": "> 10", "unit": "µM"},
      {"measurement": "Ki", "setting": "[23]", "result": "> 10", "unit": "µM"},
      {"measurement": "Ki", "setting": "[24]", "result": "> 10", "unit": "µM"},
      {"measurement": "Ki", "setting": "[25]", "result": "> 10", "unit": "µM"},
      {"measurement": "Ki", "setting": "[26]", "result": "> 10", "unit": "µM"},
      {"measurement": "Ki", "setting": "[27]", "result": "> 10", "unit": "µM"},
      {"measurement": "Ki", "setting": "[28]", "result": "> 10", "unit": "µM"},
      {"measurement": "Ki", "setting": "[29]", "result": "> 10", "unit": "µM"},
      {"measurement": "Ki", "setting": "[30]", "result": "> 10", "unit": "µM"},
      {"measurement": "Ki", "setting": "[31]", "result": "> 10", "unit": "µM"},
      {"measurement": "Ki", "setting": "[32]", "result": "> 10", "unit": "µM"},
      {"measurement": "Ki", "setting": "[33]", "result": "> 10", "unit": "µM"},
      {"measurement": "Ki", "setting": "[34]", "result": 4.6, "unit": "µM"},
      {"measurement": "Ki", "setting": "[35]", "result": "> 10", "unit": "µM"},
      {"measurement": "Ki", "setting": "[36]", "result": "> 10", "unit": "µM"},
      {"measurement": "Ki", "setting": "[37]", "result": "> 10", "unit": "µM"},
      {"measurement": "Ki", "setting": "[38]", "result": "> 10", "unit": "µM"},
      {"measurement": "Ki", "setting": "[39]", "result": "> 10", "unit": "µM"},
      {"measurement": "Ki", "setting": "[40]", "result": "> 10", "unit": "µM"}
    ]}
  ]
}
